Assay results reported in ChEMBL document CHEMBL1201862, “PubChem BioAssay data set” (2004).
Active and inactive are the calls of the source.

Experiments:
Vero = experiment: Vero cell toxicity, dose response, cytotoxicity control, plate reader, cherry-pick samples (AID 687020); type: functional, cell-based; conditions: Chlorocebus sabaeus
A549 = experiment: A549 cell toxicity, dose response, cytotoxicity control, plate reader, cherry-pick samples (AID 687028); type: functional, cell-based; conditions: Homo sapiens
Beta-galactosidase = Beta-galactosidase (Escherichia coli, UniProt Q8VNN2); experiment: Dose response counterscreen for EBI2 assay utilizing the enzyme, b-galactosidase.; type: functional
[1] = target: T1, Methionyl-tRNA synthetase, putative (Trypanosoma brucei brucei, UniProt Q38C91); type: functional, Trypanosoma brucei brucei strain 927/4 GUTat10.1
T1 sequence (Q38C91 whole entry): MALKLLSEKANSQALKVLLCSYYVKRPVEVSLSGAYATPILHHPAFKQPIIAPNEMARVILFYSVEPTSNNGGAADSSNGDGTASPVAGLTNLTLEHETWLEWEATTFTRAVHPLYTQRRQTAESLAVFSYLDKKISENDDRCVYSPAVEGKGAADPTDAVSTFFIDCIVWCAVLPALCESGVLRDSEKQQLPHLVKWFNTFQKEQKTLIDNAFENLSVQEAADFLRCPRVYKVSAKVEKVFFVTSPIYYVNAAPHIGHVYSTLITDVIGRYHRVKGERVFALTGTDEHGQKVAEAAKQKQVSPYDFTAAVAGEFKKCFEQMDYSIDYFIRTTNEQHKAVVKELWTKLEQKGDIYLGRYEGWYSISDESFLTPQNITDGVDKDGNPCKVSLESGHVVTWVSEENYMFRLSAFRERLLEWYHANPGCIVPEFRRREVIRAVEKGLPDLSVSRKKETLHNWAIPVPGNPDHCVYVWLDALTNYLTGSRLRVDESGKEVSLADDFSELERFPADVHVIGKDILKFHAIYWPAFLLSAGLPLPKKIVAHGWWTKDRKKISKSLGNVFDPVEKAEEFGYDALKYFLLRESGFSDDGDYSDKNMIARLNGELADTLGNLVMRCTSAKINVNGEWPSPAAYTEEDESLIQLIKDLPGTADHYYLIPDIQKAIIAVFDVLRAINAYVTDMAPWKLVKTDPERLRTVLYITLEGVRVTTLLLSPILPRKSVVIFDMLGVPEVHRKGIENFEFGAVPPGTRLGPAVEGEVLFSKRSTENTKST

[2] = Counterscreen for inhibitors of Trypanosoma brucei methionyl tRNA synthetase (MetRS): Luminescence-based cell-based high throughput dose response assay to identify compounds that are cytotoxic to Jurkat human T lymphocyte cells.; type: functional
[3] = target: T1, Methionyl-tRNA synthetase, putative; type: functional, Trypanosoma brucei brucei strain 927/4 GUTat10.1; remark: listed apart in the source
[4] = HepG2 cell cytotoxicity, dose response, cytotoxicity control, ATP luminescence, cherry-pick, activator set 2 (AID 1053143); type: functional, cell-based
[5] = inhibitors of HIV Env-driven cell fusion, dose response, cherry-pick (AID 652057); type: functional, cell-based
[6] = CEM21 lymphoblast cell cytotoxicity, dose response, cytotoxicity control for viral fusion inhibitor project, CellTiter-Glo luminescence, cherry-picked (AID 652042); type: functional, cell-based;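 also: potency for signal decrease meaning cytotoxicity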
[7] = ZM109 Env clade C HIV-1 fusion inhibitors, dose response, HeLa effector, CEM target cells, luciferase, cherry-pick (AID 652058); type: functional, cell-based
[8] = off-target signal loss in HeLa-CEM21 co-culture – HeLa F-luc CTL cells, cherry-picked, counter-screen for HIV-1 Env fusion inhibitor project, dose response (AID 652040); type: functional, cell-based;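 also: potency for signal decrease marking cytotoxic or nonspecific inhibition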
[9] = inhibitors of clade B AD8 Env fusion, dose response, cell-based, cherry-pick (AID 652062); type: functional;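 also: luciferase signal from cell-cell fusion driven by HIV-1 clade B AD8 Env; potency is for inhibitors of fusion seen as a drop in luminescence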
Paired box protein Pax-8 = Paired box protein Pax-8 (Homo sapiens, UniProt Q06710); experiment: inhibitors of PAX8-driven TPO luciferase reporter, dose response, RMG-I cells, cherry-pick (AID 687027); type: functional, cell-based;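 also: luciferase reporter driven by Pax8 target thyroperoxidase promoter measured by SteadyGlo luminescence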
[10] = A549 cell cytotoxicity, dose response, cytotoxicity control, plate reader, cherry-pick, antagonist series (AID 743412); type: functional, cell-based
[11] = HepG2 cell cytotoxicity, dose response, cytotoxicity control, plate reader, cherry-pick, antagonist series (AID 743416); type: functional, cell-based
[12] = LGR2 antagonists, dose response, cell-based, HEK293, CRE-luciferase reporter, cherry pick, set 2 (AID 743343); type: functional;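 also: transfected cells were stimulated with diluted bursicon conditioned medium after compound addition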
[13] = non-specific cell cytotoxicity, dose response, cytotoxicity control for PAX8 inhibitor project, plate reader, dry powder samples (AID 743021); type: functional, cell-based
[14] = MC4R antagonists, dose response, counter-screen for LGR2 antagonist project, cell-based, plate reader, cherry pick (AID 743444); type: functional;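 also: transfected HEK 293 cells stimulated with alpha-MSH peptide; potency of inhibitors of the alpha-MSH evoked signal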
[15] = HEK293 cell cytotoxicity, dose response, cytotoxicity control, plate reader, cherry-picked samples (AID 743446); type: functional, cell-based
[16] = miR-122 activators in hepatoma reporter cells, dose response, cell-based, Huh7 psiCHECK-miR122, Renilla luciferase, cherry-picked (AID 651956); type: functional;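 also: huh7 hepatoma cells stably carrying a psiCHECK-2 miR-122 sensor plasmid; renilla luciferase signal reporting endogenous miR-122 activity after 48 h compound exposure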
[17] = HEK293T cytotoxicity, dose response, cytotoxicity control for miR-122 modulator project, cell-based, activator set, cherry-pick (AID 720690); type: functional;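 also: HEK293T human cells scored for general mammalian cytotoxicity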
cells = type: functional, cell-based
[18] = target: Nuclear receptor subfamily 0 group B member 1 (Homo sapiens, UniProt P51843); type: functional, cell-based;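 also: HEK293T cells transfected with SF-1 and DAX-1 plus StAR promoter luciferase reporter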
[19] = target: T2, Histone-lysine N-methyltransferase NSD2 (Homo sapiens, UniProt O96028); type: biochemical
T2 sequence (O96028 whole entry): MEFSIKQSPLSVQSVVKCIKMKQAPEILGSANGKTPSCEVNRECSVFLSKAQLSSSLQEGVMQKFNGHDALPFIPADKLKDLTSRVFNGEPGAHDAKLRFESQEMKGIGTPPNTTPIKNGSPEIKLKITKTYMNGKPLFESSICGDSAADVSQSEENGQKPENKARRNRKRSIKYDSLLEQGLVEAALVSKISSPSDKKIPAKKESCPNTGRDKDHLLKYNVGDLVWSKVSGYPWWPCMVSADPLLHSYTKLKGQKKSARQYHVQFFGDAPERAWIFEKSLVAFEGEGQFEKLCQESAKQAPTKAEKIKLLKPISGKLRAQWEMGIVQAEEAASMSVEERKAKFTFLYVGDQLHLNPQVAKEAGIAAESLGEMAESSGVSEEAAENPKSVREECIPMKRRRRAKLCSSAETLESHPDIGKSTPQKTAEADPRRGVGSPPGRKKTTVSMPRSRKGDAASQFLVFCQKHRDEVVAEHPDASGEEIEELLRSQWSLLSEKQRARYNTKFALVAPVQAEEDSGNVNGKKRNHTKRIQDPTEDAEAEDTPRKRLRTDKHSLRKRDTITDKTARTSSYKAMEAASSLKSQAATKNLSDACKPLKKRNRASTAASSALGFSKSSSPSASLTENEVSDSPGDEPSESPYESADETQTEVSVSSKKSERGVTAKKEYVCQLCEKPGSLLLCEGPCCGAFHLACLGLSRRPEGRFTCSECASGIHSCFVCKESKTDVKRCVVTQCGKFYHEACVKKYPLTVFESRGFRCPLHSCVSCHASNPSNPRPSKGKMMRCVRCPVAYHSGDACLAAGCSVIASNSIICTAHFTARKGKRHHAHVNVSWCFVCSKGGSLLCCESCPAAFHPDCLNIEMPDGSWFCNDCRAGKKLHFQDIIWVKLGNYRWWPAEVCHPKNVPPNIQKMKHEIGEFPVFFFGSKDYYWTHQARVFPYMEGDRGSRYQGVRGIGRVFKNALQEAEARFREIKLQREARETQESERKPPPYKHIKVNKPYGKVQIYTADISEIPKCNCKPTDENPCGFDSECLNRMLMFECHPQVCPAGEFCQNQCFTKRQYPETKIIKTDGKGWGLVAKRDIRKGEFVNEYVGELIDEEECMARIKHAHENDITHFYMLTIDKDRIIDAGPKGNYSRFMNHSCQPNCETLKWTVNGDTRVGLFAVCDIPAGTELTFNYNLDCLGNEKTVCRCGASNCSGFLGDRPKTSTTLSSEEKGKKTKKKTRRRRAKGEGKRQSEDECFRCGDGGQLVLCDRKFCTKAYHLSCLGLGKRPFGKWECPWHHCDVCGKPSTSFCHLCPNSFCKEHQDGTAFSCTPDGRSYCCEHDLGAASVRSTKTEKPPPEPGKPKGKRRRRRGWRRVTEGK

[20] = NIH:OVCAR-3 ovarian cancer cell cytotoxicity, dose response, PAX8 inhibitor project, plate reader, dry powder samples (AID 743044); type: functional, cell-based
[21] = IGROV1 ovarian cancer cell cytotoxicity, dose response, PAX8 inhibitor project, plate reader, dry powder samples (AID 743043); type: functional, cell-based; conditions: IGROV-1
[22] = cytotoxicity in OVCAR8 ovarian cancer cells, dose response, PAX8 project, cell-based, plate reader, dry powder samples (AID 743197); type: functional; conditions: OVCAR-8
[23] = HeLa cell cytotoxicity, dose response, cytotoxicity control for MgcRacGAP inhibitor project (AID 624300); type: functional
[24] = target: T3, Rac GTPase-activating protein 1 (Homo sapiens, UniProt Q9H0H5); experiment: MgcRacGAP GTPase-activating activity inhibitors, confirmation, biochemical, ADP Hunter fluorescence, primary and confirmatory (AID 624330); type: functional
T3 sequence (Q9H0H5 whole entry): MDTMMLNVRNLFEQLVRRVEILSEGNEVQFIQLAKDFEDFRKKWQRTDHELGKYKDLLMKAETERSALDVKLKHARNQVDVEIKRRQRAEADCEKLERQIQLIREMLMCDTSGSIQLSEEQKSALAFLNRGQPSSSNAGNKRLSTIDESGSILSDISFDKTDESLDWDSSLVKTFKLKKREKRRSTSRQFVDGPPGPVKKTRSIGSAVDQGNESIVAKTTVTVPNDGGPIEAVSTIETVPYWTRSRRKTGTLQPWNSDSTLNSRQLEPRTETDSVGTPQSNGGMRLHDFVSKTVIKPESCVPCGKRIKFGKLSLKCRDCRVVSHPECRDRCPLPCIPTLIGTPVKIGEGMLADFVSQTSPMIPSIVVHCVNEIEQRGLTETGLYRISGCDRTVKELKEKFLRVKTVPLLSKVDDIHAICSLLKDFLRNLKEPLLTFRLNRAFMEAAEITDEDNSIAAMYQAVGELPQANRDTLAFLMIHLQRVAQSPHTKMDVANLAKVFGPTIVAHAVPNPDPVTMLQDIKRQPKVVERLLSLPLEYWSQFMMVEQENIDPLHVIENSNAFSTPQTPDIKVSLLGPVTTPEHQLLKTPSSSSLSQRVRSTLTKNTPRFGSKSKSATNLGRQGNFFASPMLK

Sequence of Nuclear receptor subfamily 0 group B member 1 (P51843 whole entry): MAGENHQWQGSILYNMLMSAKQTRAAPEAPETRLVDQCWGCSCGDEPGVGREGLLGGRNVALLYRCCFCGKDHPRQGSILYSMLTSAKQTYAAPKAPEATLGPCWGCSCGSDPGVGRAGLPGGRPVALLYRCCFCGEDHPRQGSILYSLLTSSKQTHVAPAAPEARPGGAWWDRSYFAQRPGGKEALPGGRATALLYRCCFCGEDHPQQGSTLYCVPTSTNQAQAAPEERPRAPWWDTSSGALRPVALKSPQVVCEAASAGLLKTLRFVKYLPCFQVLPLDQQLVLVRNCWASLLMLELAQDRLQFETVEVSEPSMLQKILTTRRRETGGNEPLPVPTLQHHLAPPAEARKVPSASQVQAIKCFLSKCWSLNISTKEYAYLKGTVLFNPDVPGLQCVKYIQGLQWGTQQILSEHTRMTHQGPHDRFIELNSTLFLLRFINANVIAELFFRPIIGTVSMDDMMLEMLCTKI
Sequence of Paired box protein Pax-8 (Q06710 whole entry): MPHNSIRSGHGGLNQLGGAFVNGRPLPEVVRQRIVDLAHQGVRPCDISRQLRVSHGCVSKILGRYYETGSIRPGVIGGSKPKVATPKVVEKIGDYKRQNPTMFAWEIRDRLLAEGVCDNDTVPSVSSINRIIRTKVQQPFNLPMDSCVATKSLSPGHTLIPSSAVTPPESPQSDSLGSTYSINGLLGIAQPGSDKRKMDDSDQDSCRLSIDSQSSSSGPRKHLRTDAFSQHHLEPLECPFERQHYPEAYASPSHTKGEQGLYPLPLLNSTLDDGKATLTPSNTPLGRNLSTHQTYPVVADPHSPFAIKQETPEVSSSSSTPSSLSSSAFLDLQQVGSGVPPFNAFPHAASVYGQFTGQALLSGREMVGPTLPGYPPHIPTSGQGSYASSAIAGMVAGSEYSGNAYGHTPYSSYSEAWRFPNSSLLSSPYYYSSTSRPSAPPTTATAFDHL
Sequence of Beta-galactosidase (Q8VNN2 whole entry): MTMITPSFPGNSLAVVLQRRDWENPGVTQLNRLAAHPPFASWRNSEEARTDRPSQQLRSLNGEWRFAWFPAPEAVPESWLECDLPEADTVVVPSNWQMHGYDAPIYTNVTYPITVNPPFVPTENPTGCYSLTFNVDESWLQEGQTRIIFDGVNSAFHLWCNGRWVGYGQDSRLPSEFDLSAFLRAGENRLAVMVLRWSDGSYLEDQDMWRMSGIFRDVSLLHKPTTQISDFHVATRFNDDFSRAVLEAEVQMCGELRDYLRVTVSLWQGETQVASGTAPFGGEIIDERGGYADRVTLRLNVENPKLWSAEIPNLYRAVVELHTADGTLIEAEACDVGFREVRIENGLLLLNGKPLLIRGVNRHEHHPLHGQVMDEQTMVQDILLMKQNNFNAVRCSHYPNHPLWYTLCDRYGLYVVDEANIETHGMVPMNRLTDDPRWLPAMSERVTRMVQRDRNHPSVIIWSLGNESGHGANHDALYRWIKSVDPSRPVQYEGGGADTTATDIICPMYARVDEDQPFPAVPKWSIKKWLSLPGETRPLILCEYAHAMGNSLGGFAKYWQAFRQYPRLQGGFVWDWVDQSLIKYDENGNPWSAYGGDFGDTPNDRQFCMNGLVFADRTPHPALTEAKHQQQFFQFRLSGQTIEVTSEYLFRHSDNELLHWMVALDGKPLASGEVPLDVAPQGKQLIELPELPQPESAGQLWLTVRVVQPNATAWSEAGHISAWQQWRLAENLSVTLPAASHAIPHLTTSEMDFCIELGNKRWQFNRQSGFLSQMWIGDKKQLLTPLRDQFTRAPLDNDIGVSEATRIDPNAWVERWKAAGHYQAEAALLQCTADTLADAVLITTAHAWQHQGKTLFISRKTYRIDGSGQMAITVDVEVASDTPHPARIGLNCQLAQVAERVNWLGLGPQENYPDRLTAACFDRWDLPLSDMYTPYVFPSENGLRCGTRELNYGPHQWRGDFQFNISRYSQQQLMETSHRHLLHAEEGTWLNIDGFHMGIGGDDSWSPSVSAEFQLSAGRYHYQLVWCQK

With CC1CCCN(CCOc2cccc(Oc3ccccc3)c2)C1 (centres undefined) the AC50 (Vero) was 2.31 µM (active) and the AC50 (A549) was 1.65 µM (active).
With O=C(COc1ccc(Cl)cc1)N1CCN(C/C=C/c2ccccc2)CC1 the IC50 (Beta-galactosidase) was > 80 µM (inactive).
For CCN1C(=O)C(CC(=O)Nc2ccc(F)cc2)N(CCc2ccc(OC)cc2)C1=S (centres undefined), the IC50 [1] was 13.2 µM (inactive), the IC50 [2] was 83.3 µM (inactive) and the IC50 [3] was 10.5 µM (inactive).
With CN1CCN(Cc2cc(Cl)c3cccnc3c2OC(=O)c2cccs2)CC1 the AC50 [4] was 26 µM (active).
In the case of CN(C)C(=O)c1ccc(-c2cc3onc(-c4ccccc4)c3c(=O)n2C)cc1, the AC50 [4] is reported as 26 µM (active).
For S=C(NCCc1ccccc1)N1Cc2cc(N3CCCCC3)ccc2-n2nncc2C1, the AC50 [5] was 5.34 µM (active), the AC50 [6] was 60.7 µM (active) and the AC50 [7] was 9.8 µM (active). The AC50 [8] was 7.92 µM (active) and the AC50 [9] was 9.73 µM (active).
For COc1cccc(-c2c[nH]c(C(O)c3cc(Cl)cc(Cl)c3)n2)c1 (centres undefined), the IC50 [1] was 10.3 µM (inactive), the IC50 [2] was 83.3 µM (inactive) and the IC50 [3] was 4.9 µM (active).
In the case of Oc1nc2ccccc2n1C1CCN(C(CCc2ccccc2)c2nnnn2-c2ccc3c(c2)OCCO3)CC1 (centres undefined), the AC50 (Paired box protein Pax-8) is reported as 1.54 µM (active), the AC50 [10] is reported as 7.65 µM (active) and the AC50 [11] is reported as 16.5 µM (active). For the same molecule, the AC50 [12] was 9.66 µM (active), the AC50 [13] was 10.8 µM (active) and the AC50 [14] was 2.86 µM (active). For the same molecule, the AC50 [15] was 14.5 µM (active).
For COc1ccccc1NC(=O)N1CCCCN2[C@H](CO)[C@H](c3ccc(C#CC4CCCC4)cc3)[C@H]2C1, the AC50 [16] was 21.9 µM (active) and the AC50 [17] was 12.6 µM (active).
For Cc1ccccc1-c1nnc2n1N=C(c1ccc(O)c(O)c1)CS2, the IC50 (cells) was > 67.6 µM (inactive), the IC50 [18] was > 67.6 µM (inactive) and the AC50 [19] was > 20 µM (inactive).
In the case of O=C(c1ccc(F)cc1)N1CC(=O)N2[C@@H](CO)[C@@H](c3ccc(C#Cc4ccc(F)cc4)cc3)[C@@H]2C1, the AC50 (Paired box protein Pax-8) is reported as 9.4 µM (active), the AC50 [20] is reported as 7.81 µM (active) and the AC50 [21] is reported as 23 µM (active). For the same molecule, the AC50 [13] was 2.16 µM (active) and the AC50 [22] was > 70 µM (inactive).
With CCOc1ccc(/C=N/NC(=O)NC23CC4CC(CC(C4)C2)C3)cc1O the CC50 [23] was 100 µM (active) and the IC50 [24] was 148 µM (active).
With O/N=C/c1ccn(-c2ccc(Br)cc2)c1 the IC50 (cells) was > 67.5 µM (inactive) and the IC50 [18] was > 67.5 µM (inactive).
In the case of CCC1CN(S(=O)(=O)c2ccc3c(c2)NC(=O)CC(=O)N3)c2cc(Cl)ccc2O1 (centres undefined), the AC50 (Vero) is reported as 27.7 µM (active) and the AC50 (A549) is reported as 28.5 µM (active).
